Holding throughout (type): cell-based
Assay [1] in a line: Inhibition of hedgehog signaling pathway in mouse Light2 cells in Shh-N conditioned medium after 24 hrs by dual luciferase reporter gene assay. On the technique in general: In a reporter assay the amount or activity of a reporter protein is the signal.
A short description of assay [2]: Inhibition of Smo-mediated hedgehog signaling pathway in mouse C3H10T1/2 cells after 6 days by Gli-dependent luciferase reporter gene assay. The settings on record: C3H 10T1/2, 144 h.
The nature of assay [3]: Inhibition of Smo-mediated hedgehog signaling pathway in mouse Light2 cells in Shh conditioned medium after 48 hrs by Gli-Renilla luciferase reporter gene assay.
A short description of assay [4]: Inhibition of hedgehog signaling pathway in mouse Light2 cells in Shh conditioned medium assessed as reduction in GLI2 expression by Western blot analysis. For orientation: Immunoblotting shows a protein as a band on a membrane.
Assay [5] is described as follows: Inhibition of hedgehog signaling pathway in mouse Light2 cells in Shh conditioned medium assessed as reduction in GLI1 expression by Western blot analysis.

Usually IC50 stands for the concentration at which inhibition is half-maximal. On to `CC[C@@H](C)C(=O)O[C@@H](C)[C@]1(O)CC[C@@]2(O)[C@]1(C)[C@H](OC(=O)/C=C/c1ccccc1)C[C@@H]1[C@@]3(C)CC[C@H](O)CC3=CC[C@]12O`, for which, in assay [1], the concentration for half-maximal inhibition (IC50) is 3700 nM.

`COc1cc(C(=O)NC(=N)Nc2ccc(C)c(NC(=O)c3ccc(CCc4ccccc4)cc3)c2)cc(OC)c1OC` showed an IC50 in assay [2] of 2.8 nM.

Consider `CC[C@H](C)C(=O)O[C@@H](C)[C@]1(O)CC[C@@]2(O)[C@]1(C)[C@H](OC(=O)/C=C/c1ccccc1)C[C@@H]1[C@@]3(C)CC[C@H](O)CC3=CC[C@]12O`, for which the 50% inhibitory concentration (IC50) in assay [1] was found to be 2900 nM.

`COc1cc(C(=O)NC(=S)Nc2cccc(NC(=O)c3ccccc3)c2)cc(OC)c1OC` yielded an IC50 in assay [2] of 650 nM.

`COc1cc(C(=O)NC(=N)Nc2ccc(C)c(NC(=O)c3ccc(-c4ccccc4)cc3)c2)cc(OC)c1OC`: the midpoint of inhibition in assay [2], the IC50, lay at 15 nM.

In assay [3], `Cc1ccc(Cn2ncc3nc(-c4ccc(N5CCN(C(=O)CCc6c[nH]c7ccccc67)CC5)cc4)[nH]c32)cc1` returned an IC50 of 1400 nM.

Consider `C[C@@H]1CC[C@@]2(NC1)O[C@H]1C[C@H]3[C@@H]4CC=C5C[C@@H](O[C@@H]6O[C@H](CO)[C@H](O)[C@H](O[C@@H]7O[C@H](CO)[C@@H](O)[C@H](O)[C@H]7O)[C@H]6O[C@@H]6O[C@@H](C)[C@H](O)[C@@H](O)[C@H]6O)CC[C@]5(C)[C@H]4CC[C@]3(C)[C@H]1[C@@H]2C` [SOLASONINE], for which the IC50 in assay [4] was 2300 nM; in assay [5] it was 2490 nM.

On to `CCC(C)n1ncn(-c2ccc(N3CCN(c4ccc(OCC5COC(Cn6cncn6)(c6ccc(Cl)cc6Cl)O5)cc4)CC3)cc2)c1=O` (stereo not given) [ITRACONAZOLE], for which, in assay [3], the midpoint of inhibition, the IC50, lay at 690 nM.

The compound `COc1ccc(/C=C/C(=O)c2cc(OC)c(OC)cc2OC)cc1OC` showed an IC50 in assay [3] of 4440 nM.

The record behind these values is ChEMBL document CHEMBL4265903, “Current trends in Hedgehog signaling pathway inhibition by small molecules” (Bioorg Med Chem Lett, 2018).
